Patent US12037305B2, “Calcium salt polymorphs as anti-inflammatory, immunomodulatory and anti-proliferative agents” (Immunic AG, priority 2018, dated 2024)
Counter-ions that a name gives are not always drawn.

Columns and labels:
Human T-Cells = assay: Proliferation assay of human T-cells (PHA-stimulated PBMC, BrdU ELISA); format: cell-based; conditions: T-cell, PHA 20 μg/ml, 48 hours
Method: Human peripheral blood mononuclear cells (PBMC) were obtained from healthy volunteers and transferred to RPMI1640 cell culture medium containing 10% dialyzed fetal calf serum. 80.000 cells per well were pipetted into a 96-well plate and phytohemagglutinin (PHA) was added in phosphate buffered saline to a final concentration of 20 μg/ml to stimulate T-cell proliferation. Vidofludimus was added in dimethyl sulfoxide (DMSO, final concentration: 0.1 Vol %) to final concentrations ranging from 20 nM to 50 μM. After incubation for 48 hours, cell proliferation was quantified using the “cell proliferation ELISA BrdU” (Roche) according to the manufacturer's instructions. Half maximal inhibition (IC50) was calculated using a 4-parameter sigmoidal curve fit.

[1] = Dynamic vapor sorption (DVS); format: physicochemical
Excerpt: DVS (SMS): Surface Measurement Systems Ltd. DVS-1 water vapour sorption analyzer. The sample is placed on a platinum sample pan and allowed to equilibrate at a given relative humidity (r.h.), usually 50% r.h. Then, a pre-defined humidity program was started with a scanning rate of 5% r.h. change per hour. First step: from 50% r.h. to 0% r.h. (in case of a possibly hydrate as starting material 50 to 95% r.h.), second step: from 0% to 95% r.h. (in case of a possibly hydrate as starting material 95 to 0% r.h.)

| Compound | IC50 (Human T-Cells) | water uptake ([1]; at 95% r.h. (not reversible)) | water uptake ([1]; at about 85% r.h., after desolvation) |
| --- | --- | --- | --- |
| COc1cccc(-c2ccc(NC(=O)C3=C(C(=O)O)CCC3)c(F)c2)c1 [Vidofludimus, 2-(3-Fluoro-3′-methoxy-biphenyl-4-ylcarbamoyl)-cyclopent-1-enecarboxylic acid] | 4.1 µM | – | – |
| COc1cccc(-c2ccc(NC(=O)C3=C(C(=O)O)CCC3)c(F)c2)c1 [Calcium salt] | – | 0.4% | 0.3% |
